Assay results from PubChem BioAssay (NCI).
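Method: 48-hour compound exposure of cells in 96-well plates, five concentrations, linear interpolation of endpoints. Here, GI50 denotes the concentration required for 50% inhibition of growth. TGI marks complete inhibition of growth.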

Assays:
Assay in all cases: NCI-60 cell line screen, 48 h
HT29 colon = system: HT29 colon
M14 melanoma = system: M14 melanoma
IGROV1 ovarian = system: IGROV1 ovarian
ACHN renal = system: ACHN renal
MOLT-4 leukemia = system: MOLT-4 leukemia
UACC-62 melanoma = system: UACC-62 melanoma
HCC-2998 colon = system: HCC-2998 colon
CAKI-1 renal = system: CAKI-1 renal

SMILES | GI50 (HT29 colon) [µM] | TGI (HT29 colon) [µM] | GI50 (M14 melanoma) [µM] | TGI (M14 melanoma) [µM] | GI50 (IGROV1 ovarian) [µM] | TGI (IGROV1 ovarian) [µM] | GI50 (ACHN renal) [µM] | TGI (ACHN renal) [µM] | GI50 (MOLT-4 leukemia) [µM] | TGI (MOLT-4 leukemia) [µM] | GI50 (UACC-62 melanoma) [µM] | TGI (UACC-62 melanoma) [µM] | GI50 (HCC-2998 colon) [µM] | TGI (HCC-2998 colon) [µM] | GI50 (CAKI-1 renal) [µM] | TGI (CAKI-1 renal) [µM]
O=P1(S)OC[C@H]2O[C@@H]3[C@H](F)[C@@H]2OP(O)(=S)OC[C@H]2O[C@H]([C@H](F)[C@@H]2O1)n1cnc2c(ncnc21)NC/C=C/CNc1ncnc2c1ncn23 (some centres undefined) | 43.7 | > 100 | > 100 | > 100 | > 100 | > 100 | > 100 | > 100 | > 100 | > 100 | > 100 | > 100 | > 100 | > 100 | > 100 | > 100
CC1=Nc2ccccc2/C1=C\c1c(C)[nH]c2ccccc12 | – | 25.4 | – | > 100 | – | 25.4 | – | 29.5 | – | 40.2 | – | 25.1 | – | 30.1 | – | 29.1
O=c1[nH]c2nc(NC3CCOCC3)ncc2cc1Oc1ccc(F)cc1F | > 25 | > 25 | > 25 | > 25 | > 25 | > 25 | > 25 | > 25 | > 25 | > 25 | > 25 | > 25 | > 25 | > 25 | > 25 | > 25
O=C(O)CCNCCCCNCCC(=O)O | – | > 100 | – | > 100 | – | > 100 | – | > 100 | – | > 100 | – | > 100 | – | > 100 | – | > 100
COc1ccc(C(=O)NNc2nc(Cl)nc(N3CCN(C(c4ccccc4)c4ccccc4)CC3)n2)cc1 | – | – | 1.75 | 3.58 | 1.67 | 3.11 | 1.76 | 3.16 | 1.64 | 5.15 | 1.82 | 3.54 | 1.49 | 2.89 | 1.84 | 3.48
CCOc1c(N=Nc2ccccc2Cl)c(-c2ccccc2)nn1C(=S)S | – | > 100 | – | > 100 | – | > 100 | – | > 100 | – | 58.2 | – | > 100 | – | – | – | 70.3
COc1ccc(C(O)c2cc3c(N)c(C(=O)Nc4cccc(Cl)c4)sc3nc2C)cc1 (centres undefined) | 1.08 | > 33.4 | 0.731 | > 36.5 | 2.52 | > 56 | 2.3 | > 42.4 | 1.54 | > 43.3 | 2.14 | > 80.2 | 1.76 | > 35.9 | 1.27 | > 39.4
CC(C)(C)OC(=O)NCCCn1c2c(c3ccccc3c1=O)C(=O)c1ccccc1-2 | – | – | > 100 | > 100 | > 100 | > 100 | 14.3 | 67.9 | > 100 | > 100 | 20.4 | 53.6 | – | – | 6.86 | 22.2
C1CC2CN(CCCN3CCOCC3)C(C1)O2 (centres undefined) | – | > 100 | – | > 100 | – | > 100 | – | > 100 | – | > 100 | – | > 100 | – | – | – | > 100
Cc1ccc(S(=O)(=O)c2nc(-c3ccccc3)oc2S(C)=O)cc1 (centres undefined) | 1.81 | 5.03 | 1.59 | 3.25 | – | – | 1.52 | 2.88 | 2.12 | 5.5 | 1.5 | 2.87 | 16.4 | 30.4 | 1.5 | 2.84
O=C(Nc1ccc(-c2nc(-c3cccc(OCCN4CCOCC4)c3)c(-c3ccnc(Br)c3)[nH]2)cc1)c1ccccc1 | – | – | 1.8 | 4.36 | 4.61 | > 100 | 3.55 | > 100 | 0.784 | > 100 | 1.91 | 6.19 | 2.76 | > 100 | 1.84 | 5.27
S=c1nc(N/N=C/c2ccco2)c2cn[nH]c2[nH]1 | – | – | > 100 | > 100 | 46.9 | > 100 | > 100 | > 100 | – | – | 33.8 | > 100 | 22.4 | 88.7 | 52.9 | > 100
NCCOCCOCCNc1nc(-c2ccc(Cl)cc2)nc(N2CCN(c3ccccn3)CC2)n1 | 1.85 | 3.78 | – | – | 2.81 | 7.04 | 2.48 | 6.43 | 1.99 | 3.85 | 1.99 | 3.91 | 1.75 | 3.29 | 2.01 | 5.24
c1cncc(CNCc2cccnc2)c1 | – | > 100 | – | > 100 | – | > 100 | – | > 100 | – | > 100 | – | > 100 | – | – | – | > 100
O=C([O][Sn]([O]C(=O)c1ccccn1)([c]1ccccc1)[c]1ccccc1)c1ccccn1 | 3.06 | 7.97 | 4.56 | 15.8 | 1.83 | 4.03 | 9.36 | 21.2 | – | – | 4.96 | 17.5 | 13.1 | 26 | 1.61 | 3.98
CN(C)CCSS(=O)(=O)O | – | > 100 | – | > 100 | – | > 100 | – | > 100 | – | > 100 | – | > 100 | – | – | – | > 100
O=C(Nn1c(-c2ccccc2)nc2ccccc2c1=O)c1ccccc1O | – | > 100 | – | > 100 | – | > 100 | – | > 100 | – | > 100 | – | 77.2 | – | > 100 | – | –
COC(=O)C1C(O)C(C)C(O)C(C)C=C(C)C2=C3C(=C(C)C(=O)c4c(O)c(c(C)c(OC(C)=O)c43)NC(=O)C(C)=C/C=C\C(C)C(O)C(C)C1O)OCO2 (centres undefined) | – | 70.2 | – | 68.9 | – | > 100 | – | > 100 | – | 51.4 | – | 74.5 | – | > 100 | – | –
O=C(NCCc1ccccn1)OCc1nc2nc(Cl)nc(N3CCOCC3)c2[nH]1 | 1.98 | 6.75 | – | – | 1.57 | 2.98 | 1.29 | 2.55 | 3 | 9.5 | 1.53 | 3.03 | 1.74 | 3.33 | 1.36 | 3.04
COc1cc2c(cc1OCCCCCCN1CCN(CC(=O)Nc3ccc(Cl)cc3C(=O)c3ccccc3Cl)CC1)N=CC1CCCN1C2=O (centres undefined) | 0.229 | 0.576 | – | – | 0.195 | 0.388 | 0.3 | 0.765 | 0.167 | 0.426 | 0.408 | 0.975 | 0.173 | 0.314 | 0.151 | 0.421
Cc1nc(Nc2cccnc2)sc1C(=O)/C=C/c1ccc(Cl)cc1 | 2.85 | 9.43 | 3.13 | 19.5 | 3.29 | > 100 | – | – | 3.49 | > 100 | 2.32 | 5.84 | 3.06 | 10.5 | 3.15 | 15.1
N.N.N.N.N.O=[N+]([O-])[O-].[Co+3].[O-][Cl+3]([O-])([O-])[O-] | > 100 | > 100 | > 100 | > 100 | > 100 | > 100 | > 100 | > 100 | > 100 | > 100 | > 100 | > 100 | > 100 | > 100 | – | –
Cc1ccc(N=Nc2c(O)ccc3ccccc23)cc1 | – | > 100 | – | > 100 | – | > 100 | – | > 100 | – | > 100 | – | > 100 | – | – | – | > 100
Cc1nn2c(/C=C3/C(=O)Nc4cc(Cl)ccc43)c(-c3ccccc3)nc2s1 | 11.1 | > 100 | 6.54 | > 100 | 2.07 | 4.62 | 1.54 | 3.08 | 4.11 | > 100 | – | – | > 100 | > 100 | 1.87 | 4.38
O=C(Oc1ccc(CO[N+](=O)[O-])cc1)c1ccccc1 | 0.136 | 0.27 | 0.115 | 0.271 | 0.203 | 0.411 | 0.113 | 0.236 | – | – | 0.169 | 0.396 | 0.201 | 0.447 | 0.163 | 0.308
CSCCCNC(=O)c1ccc2c(c1)/C(=C/c1[nH]c(C)cc1C)C(=O)N2 | 4.95 | > 100 | 0.284 | > 100 | 0.421 | > 100 | 0.299 | > 100 | 1.7 | > 100 | 0.687 | > 100 | 4.95 | > 100 | – | –
C1CC[N-]CC1.CC(=N\O)/C(C)=N/O.CC(=N\O)/C(C)=N/O.OC1[CH-]CCCC1.[Co+2] | 72.5 | > 100 | 52.8 | > 100 | 44.9 | > 100 | 76.3 | > 100 | 26.4 | 99.1 | 18.1 | 41.2 | – | – | 34.7 | > 100
